Data: patent US12509444B2, “Compounds and methods for CD73 modulation and indications therefor” (Plexxikon Inc., priority 2019, dated 2025)

Experiments:
[1] = biological target: T1, Human CD73 (amino acid residues 27-549) (Homo sapiens, UniProt P21589); experiment: CD73 enzymatic assay (luciferase-based indirect assay, CellTiter-Glo); format: biochemical; conditions: 0.4 nM CD73, 150 μM AMP, 1 hour at room temperature
T1 construct: Human CD73 (amino acid residues 27-549); His tag (N); made in house; host or cells: E. coli
T1 sequence (P21589 27-549): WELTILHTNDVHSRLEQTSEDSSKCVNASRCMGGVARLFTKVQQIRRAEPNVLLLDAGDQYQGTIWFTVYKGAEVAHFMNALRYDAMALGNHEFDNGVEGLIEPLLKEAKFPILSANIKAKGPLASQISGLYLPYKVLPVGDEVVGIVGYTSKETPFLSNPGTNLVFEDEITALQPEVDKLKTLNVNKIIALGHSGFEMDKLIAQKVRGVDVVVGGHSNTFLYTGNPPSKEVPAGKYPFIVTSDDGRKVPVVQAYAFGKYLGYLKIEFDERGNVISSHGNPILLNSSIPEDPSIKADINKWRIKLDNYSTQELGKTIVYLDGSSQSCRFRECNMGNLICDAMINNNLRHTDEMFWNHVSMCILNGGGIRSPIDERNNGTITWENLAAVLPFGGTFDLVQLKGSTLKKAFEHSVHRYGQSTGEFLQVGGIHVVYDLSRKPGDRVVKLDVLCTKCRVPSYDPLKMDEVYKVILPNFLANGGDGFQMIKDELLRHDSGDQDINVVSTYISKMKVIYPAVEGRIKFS
Summary of the method: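 His-tagged human CD73 (27-549) from E. coli, 0.4 nM, with 150 μM AMP in 50 mM HEPES pH 7.4, 0.01% Tween 20; 1 h at room temperature. AMP remaining read by CellTiter-Glo 2.0 luminescence with 1 μM final ATP after 30 min. IC50 from nonlinear regression of % inhibition.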

[2] = biological target: T2, human CD73 (Homo sapiens, UniProt P21589); experiment: Inhibitor activity against CD73 in cell based assay (CD73 expressing CHO-K1 cells); conditions: CHO-K1 cells expressing human CD73, 150 μM AMP, 4 hours of incubation; read-out: CHO-K1 CELL VARIANT: CD73 IC50
T2 construct: expressed in transfected cells
T2 sequence (P21589 27-549): T1 sequence (P21589 27-549)
Summary of the method: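 Stably transfected CHO-K1 cells expressing human CD73 (1×10^4/well) incubated 4 h with compound (8-point 1:3 titration, top 10 μM final, 0.2% DMSO) and 150 μM AMP. Residual AMP in supernatant measured by CellTiter-Glo luminescence with 1 μM ATP after 30 min at room temperature; IC50 by nonlinear regression of percent inhibition vs high/low controls.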

O=C(Nc1ncco1)O[C@@H]1CCN(c2cn[nH]c(=O)c2Cl)C1 [P-0225, (R)-1-(5-chloro-6-oxo-1,6-dihydropyridazin-4-yl)pyrrolidin-3-yl oxazol-2-ylcarbamate]
IC50 [1]: 0.001 to 10 µM
IC50 [2]: 10 to 100 µM

C[C@H]1CN(c2cn[nH]c(=O)c2Cl)C[C@@H]1OC(=O)NC1CCC(F)(F)CC1 [P-0139, (3R,4S)-1-(5-chloro-6-oxo-1,6-dihydropyridazin-4-yl)-4-methylpyrrolidin-3-yl (4,4-difluorocyclohexyl)carbamate]
IC50 [1]: 0.001 to 10 µM
IC50 [2]: 0.001 to 10 µM

C[C@H]1C[C@@H](OC(=O)NC2CCC(F)(F)CC2)CN1c1cn[nH]c(=O)c1Cl [P-0336, (3R,5S)-1-(5-chloro-6-oxo-1,6-dihydropyridazin-4-yl)-5-methylpyrrolidin-3-yl (4,4-difluorocyclohexyl)carbamate]
IC50 [1]: 0.001 to 10 µM
IC50 [2]: 10 to 100 µM

O=C(N[C@@H]1CCN(c2cn[nH]c(=O)c2Cl)C1)O[C@@H]1CCN(c2cn[nH]c(=O)c2Cl)C1 [P-0135, (R)-1-(5-chloro-6-oxo-1,6-dihydropyridazin-4-yl)pyrrolidin-3-yl ((R)-1-(5-chloro-6-oxo-1,6-dihydropyridazin-4-yl)pyrrolidin-3-yl)carbamate]
IC50 [1]: 0.001 to 10 µM
IC50 [2]: 0.001 to 10 µM

O=C(NC1CCC1)N[C@@H]1CCN(c2cn[nH]c(=O)c2Cl)C1 [P-0085, (R)-1-(1-(5-chloro-6-oxo-1,6-dihydropyridazin-4-yl)pyrrolidin-3-yl)-3-cyclobutylurea]
IC50 [1]: 0.001 to 10 µM
IC50 [2]: 10 to 100 µM

Cc1csc(C2(NC(=O)O[C@@H]3CCN(c4cn[nH]c(=O)c4Cl)C3)CCCC2)n1 [P-0412, (R)-1-(5-chloro-6-oxo-1,6-dihydropyridazin-4-yl)pyrrolidin-3-yl (1-(4-methylthiazol-2-yl)cyclopentyl)carbamate]
IC50 [1]: 0.001 to 10 µM
IC50 [2]: 0.001 to 10 µM

O=C(N[C@@H]1CCN(C(=O)c2ccccc2)C1)O[C@@H]1CCN(c2cn[nH]c(=O)c2Cl)C1 [P-0359, (R)-1-(5-chloro-6-oxo-1,6-dihydropyridazin-4-yl)pyrrolidin-3-yl ((R)-1-benzoylpyrrolidin-3-yl)carbamate]
IC50 [1]: 0.001 to 10 µM
IC50 [2]: 0.001 to 10 µM

O=C(NC1CC2CCC2C1)O[C@@H]1CCN(c2cn[nH]c(=O)c2Cl)C1 (stereo partly drawn) [P-0446, (R)-1-(5-chloro-6-oxo-1,6-dihydropyridazin-4-yl)pyrrolidin-3-yl bicyclo[3.2.0]heptan-3-ylcarbamate]
IC50 [1]: 0.001 to 10 µM
IC50 [2]: 0.001 to 10 µM

C[C@@H]1CN(c2cn[nH]c(=O)c2Cl)C[C@@H]1OC(=O)NC1CCC(F)(F)CC1 [P-0140, (3R,4R)-1-(5-chloro-6-oxo-1,6-dihydropyridazin-4-yl)-4-methylpyrrolidin-3-yl (4,4-difluorocyclohexyl)carbamate]
IC50 [1]: 0.001 to 10 µM
IC50 [2]: 10 to 100 µM

O=C(NC1CCN(C(=O)Cc2ccc(F)cc2)CC1)O[C@@H]1CCN(c2cn[nH]c(=O)c2Cl)C1 [P-0443, (R)-1-(5-chloro-6-oxo-1,6-dihydropyridazin-4-yl)pyrrolidin-3-yl (1-(2-(4-fluorophenyl)acetyl)piperidin-4-yl)carbamate]
IC50 [1]: 0.001 to 10 µM
IC50 [2]: 0.001 to 10 µM

O=C(NC1CCc2[nH]ncc2C1)O[C@@H]1CCN(c2cn[nH]c(=O)c2Cl)C1 (stereo partly drawn) [P-0207, (R)-1-(5-chloro-6-oxo-1,6-dihydropyridazin-4-yl)pyrrolidin-3-yl (4,5,6,7-tetrahydro-1H-indazol-5-yl)carbamate]
IC50 [1]: 0.001 to 10 µM
IC50 [2]: 0.001 to 10 µM

O=C(NC1CCCCC1)O[C@@H]1CCN(c2cn[nH]c(=O)c2Cl)C1 [P-0018, (R)-1-(5-chloro-6-oxo-1,6-dihydropyridazin-4-yl)pyrrolidin-3-yl cyclohexylcarbamate]
IC50 [1]: 0.001 to 10 µM
IC50 [2]: 0.001 to 10 µM

COc1c(N2CC[C@@H](OC(=O)NC3CCC(F)(F)CC3)C2)cn[nH]c1=O [P-0348, (R)-1-(5-methoxy-6-oxo-1,6-dihydropyridazin-4-yl)pyrrolidin-3-yl (4,4-difluorocyclohexyl)carbamate]
IC50 [1]: 0.001 to 10 µM
IC50 [2]: 10 to 100 µM

CC(C)(C(=O)N1CCC(NC(=O)O[C@@H]2CCN(c3cn[nH]c(=O)c3Cl)C2)CC1)c1ccc(F)cc1 [P-0472, (R)-1-(5-chloro-6-oxo-1,6-dihydropyridazin-4-yl)pyrrolidin-3-yl (1-(2-(4-fluorophenyl)-2-methylpropanoyl)piperidin-4-yl)carbamate]
IC50 [1]: 0.001 to 10 µM
IC50 [2]: 0.001 to 10 µM

O=C(NC1CCN(C(=O)Nc2ccc(F)cc2)CC1)O[C@@H]1CCN(c2cn[nH]c(=O)c2Cl)C1 [P-0148, (R)-1-(5-chloro-6-oxo-1,6-dihydropyridazin-4-yl)pyrrolidin-3-yl (1-((4-fluorophenyl)carbamoyl)piperidin-4-yl)carbamate]
IC50 [1]: 0.001 to 10 µM
IC50 [2]: 0.001 to 10 µM

O=C(NC1CCN(C(=O)CO)CC1(F)F)O[C@@H]1CCN(c2cn[nH]c(=O)c2Cl)C1 (stereo partly drawn) [P-0333, (R)-1-(5-chloro-6-oxo-1,6-dihydropyridazin-4-yl)pyrrolidin-3-yl (3,3-difluoro-1-(2-hydroxyacetyl)piperidin-4-yl)carbamate]
IC50 [1]: 0.001 to 10 µM
IC50 [2]: 0.001 to 10 µM

O=C(NCC1CCNCC1)O[C@@H]1CCN(c2cn[nH]c(=O)c2Cl)C1 [P-0240, (R)-1-(5-chloro-6-oxo-1,6-dihydropyridazin-4-yl)pyrrolidin-3-yl (piperidin-4-ylmethyl)carbamate]
IC50 [1]: 0.001 to 10 µM
IC50 [2]: 0.001 to 10 µM

O=C(NCc1cc(C2CC2)[nH]n1)O[C@@H]1CCN(c2cn[nH]c(=O)c2Cl)C1 [P-0223, (R)-1-(5-chloro-6-oxo-1,6-dihydropyridazin-4-yl)pyrrolidin-3-yl ((5-cyclopropyl-1H-pyrazol-3-yl)methyl)carbamate]
IC50 [1]: 10 to 100 µM
IC50 [2]: 10 to 100 µM

O=C(N[C@H]1CC[C@H](C(=O)NC2CC2)CC1)O[C@@H]1CCN(c2cn[nH]c(=O)c2Cl)C1 [P-0192, (R)-1-(5-chloro-6-oxo-1,6-dihydropyridazin-4-yl)pyrrolidin-3-yl ((1r,4R)-4-(cyclopropylcarbamoyl)cyclohexyl)carbamate]
IC50 [1]: 0.001 to 10 µM
IC50 [2]: 0.001 to 10 µM

O=C(NC1CCN(C(=O)Cc2ccccc2)CC1)O[C@@H]1CCN(c2cn[nH]c(=O)c2Cl)C1 [P-0374, (R)-1-(5-chloro-6-oxo-1,6-dihydropyridazin-4-yl)pyrrolidin-3-yl (1-(2-phenylacetyl)piperidin-4-yl)carbamate]
IC50 [1]: 0.001 to 10 µM
IC50 [2]: 0.001 to 10 µM

O=C(NC1CCN(c2ncccn2)CC1)O[C@@H]1CCN(c2cn[nH]c(=O)c2Cl)C1 [P-0123, (R)-1-(5-chloro-6-oxo-1,6-dihydropyridazin-4-yl)pyrrolidin-3-yl (1-(pyrimidin-2-yl)piperidin-4-yl)carbamate]
IC50 [1]: 0.001 to 10 µM
IC50 [2]: 0.001 to 10 µM

CC(C)(C)C(=O)N1CCC(NC(=O)O[C@@H]2CCN(c3cn[nH]c(=O)c3Cl)C2)CC1 [P-0373, (R)-1-(5-chloro-6-oxo-1,6-dihydropyridazin-4-yl)pyrrolidin-3-yl (1-pivaloylpiperidin-4-yl)carbamate]
IC50 [1]: 0.001 to 10 µM
IC50 [2]: 0.001 to 10 µM

O=C(N[C@H]1CC[C@H](NC(=O)c2ccccc2)C1)O[C@@H]1CCN(c2cn[nH]c(=O)c2Cl)C1 [P-0364, (R)-1-(5-chloro-6-oxo-1,6-dihydropyridazin-4-yl)pyrrolidin-3-yl ((1S,3S)-3-benzamidocyclopentyl) carbamate]
IC50 [1]: 0.001 to 10 µM
IC50 [2]: 0.001 to 10 µM

O=C(NC1CCS(=O)(=O)CC1)N[C@@H]1CCN(c2cn[nH]c(=O)c2Cl)C1 [P-0086, (R)-1-(1-(5-chloro-6-oxo-1,6-dihydropyridazin-4-yl)pyrrolidin-3-yl)-3-(1,1-dioxidotetrahydro-2H-thiopyran-4-yl)urea]
IC50 [1]: 0.001 to 10 µM
IC50 [2]: 10 to 100 µM

O=C(N[C@H]1CC[C@@H](NC2CCC(F)(F)CC2)CC1)O[C@@H]1CCN(c2cn[nH]c(=O)c2Cl)C1 [P-0482, (R)-1-(5-chloro-6-oxo-1,6-dihydropyridazin-4-yl)pyrrolidin-3-yl ((1s,4S)-4-((4,4-difluorocyclohexyl)amino)cyclohexyl)carbamate]
IC50 [1]: 0.001 to 10 µM
IC50 [2]: 0.001 to 10 µM

NCCn1ncc(N2CC[C@@H](OC(=O)N[C@H]3CC[C@@H](NC(=O)NC4CC4)CC3)C2)c(Cl)c1=O [P-0435, (R)-1-(1-(2-aminoethyl)-5-chloro-6-oxo-1,6-dihydropyridazin-4-yl)pyrrolidin-3-yl ((1s,4S)-4-(3-cyclopropylureido)cyclohexyl) carbamate]
IC50 [1]: 0.001 to 10 µM
IC50 [2]: 0.001 to 10 µM

O=C(NC1CC1)N[C@H]1CC[C@@H](NC(=O)O[C@@H]2CCN(c3cnn(CCO)c(=O)c3Cl)C2)CC1 [P-0398, (R)-1-(5-chloro-1-(2-hydroxyethyl)-6-oxo-1,6-dihydropyridazin-4-yl)pyrrolidin-3-yl ((1s,4S)-4-(3-cyclopropylureido)cyclohexyl) carbamate]
IC50 [1]: 0.001 to 10 µM
IC50 [2]: 0.001 to 10 µM
